Laboratory results as given in patent US20260293896A1, “PLANT GROWTH REGULATOR, PLANT GROWTH ACCELERATION METHOD, OR PLANT GROWTH-REGULATING PRODUCT” (KUREHA CORPORATION, priority 2022, published 2026).

Key:
Type in all cases: in vivo
rapeseed [1] = test: Evaluation Example 3: Comparison of Elongated Plant Height of Rapeseed; conditions: petri dish, 5 mL, 24° C, 7th day after seeding, EGT 1 mM and/or Arg 1 mM
Method: The plant growth regulators of Example 6 and Comparative Examples 8 and 9 were prepared so as to attain the concentrations indicated in Table 3 below. EGT and Arg were commercially available products, and pure water was used as a solvent.
(§1) Into a 9 cm petri dish on which filter paper was spread, 5 mL of the plant growth regulator was added. Seven seeds of rapeseed were sown per one petri dish. In a thermostatic chamber set at room temperature of 24° C., the light period was 16 hours and the dark period was 8 hours. The light conditions were set using a fluorescent lamp (PLANT FLEC, 40 W LED fluorescent lamp for plant growth, electric bulb color, available from Nippon Medical and Chemical Instruments Co., Ltd.) such that the light intensity was 5000 lx in the central part under irradiation with the fluorescent lamp.
(§2) The plant height of the rapeseed on the 7th day after seeding was evaluated.

rapeseed [2] = test: Evaluation Example 7: Comparison of Elongated Plant Height of Rapeseed; conditions: petri dish, 5 mL, 24° C, 7th day after seeding, EGT 0.5 mM and/or uracil 0.5 mM
Method: The plant growth regulators of Example 18 and Comparative Examples 24 and 25 were prepared so as to attain the concentrations indicated in Table 7 below. EGT and uracil were commercially available products, and pure water was used as a solvent.
as §1, with “Ten” for “Seven”
as §2

wheat [3] = test: Evaluation Example 8: Comparison of Elongated Plant Height of Wheat; conditions: petri dish, 5 mL, 24° C, 7th day after seeding, EGT 0.5 mM and/or component (A) 0.5 mM
Method: The plant growth regulators of Examples 19 and 20 and Comparative Examples 26 to 28 were prepared so as to attain the concentrations indicated in Table 8 below. EGT, guanine and thymine were commercially available products, and pure water was used as a solvent.
as §1, with “Ten” for “Seven”, “wheat” for “rapeseed”
(§3) The plant height of the wheat on the 7th day after seeding was evaluated.

wheat [4] = test: Evaluation Example 9: Comparison of Elongated Plant Height of Wheat; conditions: petri dish, 5 mL, 24° C, 7th day after seeding, EGT 0.5 mM and/or component (A) 0.5 mM
Method: The plant growth regulators of Examples 21 and 22 and Comparative Examples 29 to 31 were prepared so as to attain the concentrations indicated in Table 9 below. EGT, trehalose and inositol were commercially available products, and pure water was used as a solvent.
as §1, with “Ten” for “Seven”, “wheat” for “rapeseed”
as §3

tomato (Micro Tom) = test: Evaluation Example 12: Comparison of Number of Flowers and Buds of Tomato; conditions: 50 mL on 32nd, 34th, 36th days, evaluated 83rd day after seeding, EGT 0.1 mM and/or component (A) 0.1 mM
Method: The plant growth regulators of Examples 32 and 33 and Comparative Examples 43 to 45 were prepared so as to attain the concentrations indicated in Table 12 below. EGT, Arg and Glu were commercially available products, and pure water was used as a solvent.
In a plastic pot having a diameter of 135 mm and a height of 110 mm, 1 kg of granular soil (Kumiai horticultural soil) was placed, and one individual tomato (Micro Tom) was sown per one pot.
The tomato was managed in a greenhouse set at room temperature of 25° C. Chemical treatment was started 5 weeks after seeding. More specifically, on the 32nd, 34th, and 36th days after seeding, 50 mL of the plant growth regulator was added.
On the 83rd day after seeding, the number of flowers and buds was evaluated.

wheat [5] = test: Evaluation Example 15: Comparison of Elongated Plant Height of Wheat; conditions: petri dish, 5 mL, 24° C, 7th day after seeding, EGT 1 mM and/or carnitine 10 mM
Method: The plant growth regulators of Example 36 and Comparative Examples 50 and 51 were prepared so as to attain the concentrations indicated in Table 15 below. EGT and carnitine were commercially available products, and pure water was used as a solvent.
as §1, with “Ten” for “Seven”, “wheat” for “rapeseed”
as §3

wheat [6] = test: Evaluation Example 16: Comparison of Elongated Plant Height of Wheat; conditions: petri dish, 5 mL, 24° C, 7th day after seeding, EGT 1 mM and/or trehalose 0.01 or 0.1 mM
Method: The plant growth regulators of Examples 37 and 38 and Comparative Examples 52 to 54 were prepared so as to attain the concentrations indicated in Table 16 below. EGT and trehalose were commercially available products, and pure water was used as a solvent.
as §1, with “Ten” for “Seven”, “wheat” for “rapeseed”
as §3

With `C[N+](C)(C)[C@@H](Cc1c[nH]c(=S)[nH]1)C(=O)[O-]` [Comparative Example 8, L-(+)-ergothioneine] as the compound, how does the “Elongated plant height, ratio to untreated control” value (“Elongated plant height, ratio” for short) (rapeseed [1]) read?
Its value is 1.2.

For `N=C(N)NCCC[C@H](N)C(=O)O` [Comparative Example 9, L-arginine], which “Elongated plant height, ratio” value (rapeseed [1]) is on record?
Its value is 0.9.

With `C[N+](C)(C)[C@@H](Cc1c[nH]c(=S)[nH]1)C(=O)[O-]` [Comparative Example 24, L-(+)-ergothioneine] as the compound, how does the “Elongated plant height, ratio” value (rapeseed [2]) read?
Its value is 1.1.

For `O=c1cc[nH]c(=O)[nH]1` [Comparative Example 25, uracil], which “Elongated plant height, ratio” value (rapeseed [2]) is on record?
The value was 1.0.

Which “Elongated plant height, ratio” value (wheat [3]) does the source give for `C[N+](C)(C)[C@@H](Cc1c[nH]c(=S)[nH]1)C(=O)[O-]` [Comparative Example 26, L-(+)-ergothioneine] here?
Its value is 1.1.

For `C[N+](C)(C)[C@@H](Cc1c[nH]c(=S)[nH]1)C(=O)[O-]` [Comparative Example 29, L-(+)-ergothioneine], which “Elongated plant height, ratio” value (wheat [4]) is on record?
Its value is 1.1.

`C[N+](C)(C)[C@@H](Cc1c[nH]c(=S)[nH]1)C(=O)[O-]` [Comparative Example 43, L-(+)-ergothioneine] was tested. Which “Total number of flowers and buds, ratio to untreated control” value (“Total number of flowers and buds, ratio” below) (tomato (Micro Tom)) did it give?
The value was 1.1.

How did the “Elongated plant height, ratio” value (wheat [5]) turn out when `C[N+](C)(C)[C@@H](Cc1c[nH]c(=S)[nH]1)C(=O)[O-]` [Comparative Example 50, L-(+)-ergothioneine] was run?
The value was 1.1.

How did the “Elongated plant height, ratio” value (wheat [5]) turn out when `C[N+](C)(C)CC(O)CC(=O)[O-]` (stereo not drawn) [Comparative Example 51, carnitine] was run?
Its value is 1.0.

With `C[N+](C)(C)[C@@H](Cc1c[nH]c(=S)[nH]1)C(=O)[O-]` [Comparative Example 52, L-(+)-ergothioneine] as the compound, how does the “Elongated plant height, ratio” value (wheat [6]) read?
The value was 1.1.

Which “Elongated plant height, ratio” value (wheat [3]) does the source give for `Nc1nc2nc[nH]c2c(=O)[nH]1` [compound 27, guanine] here?
The value was 0.9.

For `Cc1c[nH]c(=O)[nH]c1=O` [compound 28, thymine], which “Elongated plant height, ratio” value (wheat [3]) is on record?
Its value is 0.9.

How did the “Elongated plant height, ratio” value (wheat [4]) turn out when `OC[C@H]1O[C@H](O[C@H]2O[C@H](CO)[C@@H](O)[C@H](O)[C@H]2O)[C@H](O)[C@@H](O)[C@@H]1O` [compound 30, trehalose] was run?
Its value is 1.0.

For `O[C@H]1[C@H](O)[C@@H](O)[C@H](O)[C@@H](O)[C@H]1O` [compound 31, inositol], which “Elongated plant height, ratio” value (wheat [4]) is on record?
The value was 0.9.

Which “Total number of flowers and buds, ratio” value (tomato (Micro Tom)) does the source give for `N=C(N)NCCC[C@H](N)C(=O)O` [compound 44, L-arginine] here?
Its value is 1.0.

For `N[C@@H](CCC(=O)O)C(=O)O` [compound 45, L-glutamic acid], which “Total number of flowers and buds, ratio” value (tomato (Micro Tom)) is on record?
Its value is 1.0.

For `OC[C@H]1O[C@H](O[C@H]2O[C@H](CO)[C@@H](O)[C@H](O)[C@H]2O)[C@H](O)[C@@H](O)[C@@H]1O` [compound 53, trehalose], which “Elongated plant height, ratio” value (wheat [6]) is on record?
The value was 1.0.

Which “Elongated plant height, ratio” value (wheat [6]) does the source give for `OC[C@H]1O[C@H](O[C@H]2O[C@H](CO)[C@@H](O)[C@H](O)[C@H]2O)[C@H](O)[C@@H](O)[C@@H]1O` [compound 54, trehalose] here?
Its value is 0.9.
